Tested on: healthy subjects
Test: Life Changes Inventory (LCI)
Format: in vivo, human
From the text: In some embodiments, the Life Changes Inventory (LCI) questionnaire is utilized to evaluate the safety and/or efficacy of psilocybin. The LCI is designed as a questionnaire to investigate those variables present in the day-to-day experience of adults that might relate either to stability or decline of intellectual ability.
The following list of outcome measures are non-exhaustive. • a. The short-term change from Baseline (Day −1 [Visit 2]) to Day 7 (Visit 5) in cognitive measures of attention, spatial and working memory and executive function was measured by a composite score of the CANTAB Panel (Spatial Working Memory [SWM], Rapid Visual Information Processing [RVP], Paired Associates Learning [PAL]). • b. The short-term change from Baseline (Day −1 [Visit 2]) to Day 7 (Visit 5) in Social Cognition Panel scales (Pictorial Empathy Test [PET], Reading the Mind in the Eyes Test [RMET], Toronto Empathy Questionnaire [TEQ], Social Value Orientation [SVO], Scale of Social Responsibility [SSR]). • c. The change from Baseline (Day −1 [Visit 2]) to Day 28 (Visit 6) in cognitive measures of attention, spatial and working memory and executive function as measured by a composite score of the CANTAB Panel (SWM, RVP, PAL). • d. The long-term change from Baseline (Day −1 [Visit 2]) to Day 84 (Visit 7) in Social Cognition Panel scales (PET, RMET, TEQ, SVO, SSR). • e. Dose-related differences between cognitive effects of psilocybin at Baseline (Day −1 [Visit 2]), Day 7 (Visit 5) and Day 28 (Visit 6), as measured by a composite score of the CANTAB Panel (SWM, RVP, PAL). • f. Dose-related differences between psychological effects of psilocybin at Baseline (Day −1 [Visit 2]), Day 7 (Visit 5) and Day 84 (Visit 7), as measured by Social Cognition Panel scales (PET, RMET, TEQ, SVO, SSR). • g. Differences in cognitive effects of psilocybin between psilocybin-naïve and experienced subjects at Baseline (Day −1 [Visit 2]), Day 7 (Visit 5) and Day 28 (Visit 6), as measured by a composite score of the CANTAB Panel (SWM, RVP, PAL). • h. Differences in Positive and Negative Affect Schedule (PANAS) after study drug administration on Day 0 (Visit 3). • i. Differences between psilocybin and placebo in the Emotion Recognition Test (ERT), Intra-Extra Dimensional Set Shift (IED), One Touch Stockings (OTS), Verbal Fluency and Digit Span Forward at Day 7 (Visit 5). • j. A composite score of the CANTAB Panel, including the following tests: • i. Spatial Working Memory (SWM) (performed at Visit 2, Visit 5, and Visit 6). • ii. Rapid Visual Information Processing (RVP) (performed at Visit 2, Visit 5, and Visit 6). • iii. Paired Associates Learning (PAL) (performed at Visit 2, Visit 5, and Visit 6). • k. Cognitive Flexibility Panel • i. Emotion Recognition Task (ERT) (performed at Visit 5). • ii. Intra-Extra Dimensional Set Shift (IED) (performed at Visit 5). • iii. One Touch Stockings (OTS) (performed at Visit 5). • iv. Verbal Fluency (performed at Visit 5). • v. Digit Span Forward (performed at Visit 5). • l. Five Dimension Altered States of Consciousness questionnaire (5D-ASC) (performed at Visit 3). • m. PANAS (performed at Visit 2 and Visit 3). • n. NEO-Five Factor Inventory (NEO-FFI) (performed at Visit 2, Visit 5, and Visit 7). • o. Symptom Checklist-90 item (SCL-90) (performed at Visit 2, Visit 5, and Visit 7). • p. Life Changes Inventory (LCI): The LCI measures changes in attitudes and values after near-death experiences often used to evaluate personal transformation following spiritually oriented experiences and practices. (performed at Visit 5 and Visit 7). • q. Social Cognition Panel scales • i. Pictorial Empathy Test (PET) (performed at Visit 2, Visit 5, and Visit 7). • ii. Reading the Mind in the Eyes Test (RMET) (performed at Visit 2, Visit 5, and Visit 7). • iii. Social Value Orientation (SVO) (performed at Visit 2, Visit 5, and Visit 7). • iv. Toronto Empathy Questionnaire (TEQ) (performed at Visit 2, Visit 5, and Visit 7). • v. […]

SMILES: CN(C)CCc1c[nH]c2cccc(OP(=O)(O)O)c12 [Psilocybin, psilocybin]
- LCI appreciation for life, LS mean difference Psilocybin 10 mg-Placebo (Day 7): 0.6
- LCI appreciation for life, LS mean difference Psilocybin 25 mg-Placebo (Day 7): 0.5
- LCI appreciation for life, LS mean difference Psilocybin (25 mg-10 mg) (Day 7): −0.2
- LCI appreciation of death, LS mean difference Psilocybin 10 mg-Placebo (Day 7): 0.1
- LCI appreciation of death, LS mean difference Psilocybin 25 mg-Placebo (Day 7): 0.1
- LCI appreciation of death, LS mean difference Psilocybin (25 mg-10 mg) (Day 7): −0.0
- LCI concern for others, LS mean difference Psilocybin 10 mg-Placebo (Day 7): 0.4
- LCI concern for others, LS mean difference Psilocybin 25 mg-Placebo (Day 7): 0.4
- LCI concern for others, LS mean difference Psilocybin (25 mg-10 mg) (Day 7): 0.0
- LCI concern for worldly achievement, LS mean difference Psilocybin 10 mg-Placebo (Day 7): −0.2
- LCI concern for worldly achievement, LS mean difference Psilocybin 25 mg-Placebo (Day 7): −0.1
- LCI concern for worldly achievement, LS mean difference Psilocybin (25 mg-10 mg) (Day 7): 0.1
- LCI concern social, LS mean difference Psilocybin 10 mg-Placebo (Day 7): 0.1
- LCI concern social, LS mean difference Psilocybin 25 mg-Placebo (Day 7): 0.2
- LCI concern social, LS mean difference Psilocybin (25 mg-10 mg) (Day 7): 0.1
- LCI quest for meaning, LS mean difference Psilocybin 10 mg-Placebo (Day 7): 0.4
- LCI quest for meaning, LS mean difference Psilocybin 25 mg-Placebo (Day 7): 0.4
- LCI quest for meaning, LS mean difference Psilocybin (25 mg-10 mg) (Day 7): 0.0
- LCI religiousness, LS mean difference Psilocybin 10 mg-Placebo (Day 7): −0.1
- LCI religiousness, LS mean difference Psilocybin 25 mg-Placebo (Day 7): 0.0
- LCI religiousness, LS mean difference Psilocybin (25 mg-10 mg) (Day 7): 0.1
- LCI self-acceptance, LS mean difference Psilocybin 10 mg-Placebo (Day 7): 0.7
- LCI self-acceptance, LS mean difference Psilocybin 25 mg-Placebo (Day 7): 0.5
- LCI self-acceptance, LS mean difference Psilocybin (25 mg-10 mg) (Day 7): −0.1
- LCI spirituality, LS mean difference Psilocybin 10 mg-Placebo (Day 7): 0.3
- LCI spirituality, LS mean difference Psilocybin 25 mg-Placebo (Day 7): 0.2
- LCI spirituality, LS mean difference Psilocybin (25 mg-10 mg) (Day 7): −0.1
- LCI-absolute change, LS mean difference Psilocybin 10 mg-Placebo (Day 7): 0.4
- LCI-absolute change, LS mean difference Psilocybin 25 mg-Placebo (Day 7): 0.3
- LCI-absolute change, LS mean difference Psilocybin (25 mg-10 mg) (Day 7): −0.1
- LCI appreciation for life, LS mean difference Psilocybin 10 mg-Placebo (Day 84): 0.6
- LCI appreciation for life, LS mean difference Psilocybin 25 mg-Placebo (Day 84): 0.5
- LCI appreciation for life, LS mean difference Psilocybin (25 mg-10 mg) (Day 84): −0.1
- LCI appreciation of death, LS mean difference Psilocybin 10 mg-Placebo (Day 84): 0.2
- LCI appreciation of death, LS mean difference Psilocybin 25 mg-Placebo (Day 84): 0.2
- LCI appreciation of death, LS mean difference Psilocybin (25 mg-10 mg) (Day 84): 0.0
- LCI concern for others, LS mean difference Psilocybin 10 mg-Placebo (Day 84): 0.4
- LCI concern for others, LS mean difference Psilocybin 25 mg-Placebo (Day 84): 0.5
- LCI concern for others, LS mean difference Psilocybin (25 mg-10 mg) (Day 84): 0.1
- LCI concern for worldly achievement, LS mean difference Psilocybin 10 mg-Placebo (Day 84): −0.2
- LCI concern for worldly achievement, LS mean difference Psilocybin 25 mg-Placebo (Day 84): −0.1
- LCI concern for worldly achievement, LS mean difference Psilocybin (25 mg-10 mg) (Day 84): 0.1
- LCI concern social, LS mean difference Psilocybin 10 mg-Placebo (Day 84): 0.1
- LCI concern social, LS mean difference Psilocybin 25 mg-Placebo (Day 84): 0.1
- LCI concern social, LS mean difference Psilocybin (25 mg-10 mg) (Day 84): 0.0
- LCI quest for meaning, LS mean difference Psilocybin 10 mg-Placebo (Day 84): 0.4
- LCI quest for meaning, LS mean difference Psilocybin 25 mg-Placebo (Day 84): 0.4
- LCI quest for meaning, LS mean difference Psilocybin (25 mg-10 mg) (Day 84): −0.0
- LCI religiousness, LS mean difference Psilocybin 10 mg-Placebo (Day 84): −0.0
- LCI religiousness, LS mean difference Psilocybin 25 mg-Placebo (Day 84): 0.0
- LCI religiousness, LS mean difference Psilocybin (25 mg-10 mg) (Day 84): 0.1
- LCI self-acceptance, LS mean difference Psilocybin 10 mg-Placebo (Day 84): 0.5
- LCI self-acceptance, LS mean difference Psilocybin 25 mg-Placebo (Day 84): 0.5
- LCI self-acceptance, LS mean difference Psilocybin (25 mg-10 mg) (Day 84): 0.0
- LCI spirituality, LS mean difference Psilocybin 10 mg-Placebo (Day 84): 0.4
- LCI spirituality, LS mean difference Psilocybin 25 mg-Placebo (Day 84): 0.4
- LCI spirituality, LS mean difference Psilocybin (25 mg-10 mg) (Day 84): −0.0
- LCI-absolute change, LS mean difference Psilocybin 10 mg-Placebo (Day 84): 0.4
- LCI-absolute change, LS mean difference Psilocybin 25 mg-Placebo (Day 84): 0.4
- LCI-absolute change, LS mean difference Psilocybin (25 mg-10 mg) (Day 84): −0.0
- LCI appreciation for life, LS mean (Psilocybin 10 mg, Day 7): 0.8
- LCI appreciation of death, LS mean (Psilocybin 10 mg, Day 7): 0.2
- LCI concern for others, LS mean (Psilocybin 10 mg, Day 7): 0.5
- LCI concern for worldly achievement, LS mean (Psilocybin 10 mg, Day 7): −0.2
- LCI concern social, LS mean (Psilocybin 10 mg, Day 7): 0.2
- LCI quest for meaning, LS mean (Psilocybin 10 mg, Day 7): 0.5
- LCI religiousness, LS mean (Psilocybin 10 mg, Day 7): −0.0
- LCI self-acceptance, LS mean (Psilocybin 10 mg, Day 7): 0.8
- LCI spirituality, LS mean (Psilocybin 10 mg, Day 7): 0.5
- LCI-absolute change, LS mean (Psilocybin 10 mg, Day 7): 0.5
- LCI appreciation for life, LS mean (Psilocybin 10 mg, Day 84): 0.8
- LCI appreciation of death, LS mean (Psilocybin 10 mg, Day 84): 0.2
- LCI concern for others, LS mean (Psilocybin 10 mg, Day 84): 0.5
- LCI concern for worldly achievement, LS mean (Psilocybin 10 mg, Day 84): −0.2
- LCI concern social, LS mean (Psilocybin 10 mg, Day 84): 0.2
- LCI quest for meaning, LS mean (Psilocybin 10 mg, Day 84): 0.5
- LCI religiousness, LS mean (Psilocybin 10 mg, Day 84): −0.0
- LCI self-acceptance, LS mean (Psilocybin 10 mg, Day 84): 0.6
- LCI spirituality, LS mean (Psilocybin 10 mg, Day 84): 0.5
- LCI-absolute change, LS mean (Psilocybin 10 mg, Day 84): 0.5
- LCI appreciation for life, LS mean (Psilocybin 25 mg, Day 7): 0.6
- LCI appreciation of death, LS mean (Psilocybin 25 mg, Day 7): 0.1
- LCI concern for others, LS mean (Psilocybin 25 mg, Day 7): 0.6
- LCI concern for worldly achievement, LS mean (Psilocybin 25 mg, Day 7): −0.2
- LCI concern social, LS mean (Psilocybin 25 mg, Day 7): 0.2
- LCI quest for meaning, LS mean (Psilocybin 25 mg, Day 7): 0.5
- LCI religiousness, LS mean (Psilocybin 25 mg, Day 7): 0.0
- LCI self-acceptance, LS mean (Psilocybin 25 mg, Day 7): 0.6
- LCI spirituality, LS mean (Psilocybin 25 mg, Day 7): 0.4
- LCI-absolute change, LS mean (Psilocybin 25 mg, Day 7): 0.4
- LCI appreciation for life, LS mean (Psilocybin 25 mg, Day 84): 0.7
- LCI appreciation of death, LS mean (Psilocybin 25 mg, Day 84): 0.3
- LCI concern for others, LS mean (Psilocybin 25 mg, Day 84): 0.7
- LCI concern for worldly achievement, LS mean (Psilocybin 25 mg, Day 84): −0.1
- LCI concern social, LS mean (Psilocybin 25 mg, Day 84): 0.2
- LCI quest for meaning, LS mean (Psilocybin 25 mg, Day 84): 0.5
- LCI religiousness, LS mean (Psilocybin 25 mg, Day 84): 0.0
- LCI self-acceptance, LS mean (Psilocybin 25 mg, Day 84): 0.6
- LCI spirituality, LS mean (Psilocybin 25 mg, Day 84): 0.5
- LCI-absolute change, LS mean (Psilocybin 25 mg, Day 84): 0.5
